Reference: patent US11582971B2, “Crystalline forms of deltamethrin and methods of use thereof” (priority 2019, dated 2023)

How the values were obtained:
[1] = test system: fruit flies (Drosophila melanogaster); assay: Polymorph lethality, dust, residual exposure method, fruit flies; assay type: in vivo; conditions: for average knockdown time / median knockdown time (KT50): 2 mg deltamethrin dust; for average knockdown time / median knockdown time (KT50) / longest survival (no individual survived more than) / onset of hyperactivity: female fruit flies; for longest survival (no individual survived more than) / onset of hyperactivity: 2 mg dust in 35 mm Petri dish
Protocol: (§1) The effect of deltamethrin polymorphs on fruit flies was determined by the residual exposure method. Bruck, D. J.; Bolda, M.; Tanigoshi, L.; Klick, J.; Kleiber, J.; DeFrancesco, J.; Gerdeman, B.; Spitler, H. Laboratory and field comparisons of insecticides to reduce infestation of Drosophila suzukii in berry crops. Pest. Manag. Sci. 2011, 67, 1375-1385. Lethality assays were performed for each powder sample as well as a control. Female fruit flies (Drosophila melanogaster) were temporarily anesthetized by CO2 exposure, then transferred to the 35 mm diameter petri dishes with deltamethrin dust. The dishes were covered with their mating top and the motion of the fruit flies was recorded to establish knockdown time (i.e., the time after which there was no further translational motion).
The lethalities of the two crystalline forms of deltamethrin were compared by exposing fruit flies (Drosophila melanogaster), a well-established model for pesticide development (Schneider, D. Using Drosophila as a Model Insect. Nat. Rev. Genet. 2000, 1, 218-226), to 2 mg of the respective dusts (containing […] deltamethrin Form I or Form II) dispersed evenly in 35 mm-diameter plastic Petri dishes. Each trial was performed in triplicate for each crystalline form, as well as a control.
The motions of fruit flies were monitored by a video camera. A custom designed video process programmer was used to record the onset of hyperactivity and to track the time required for the expiration of the flies, as measured by knockdown. […] (FIG. 5A). Both the onset of hyperactivity and death occurred much later for deltamethrin Form I-exposed flies.
(§2) Lethality was deduced by the standard measurement of knockdown time, defined as time when a fly is immobile in a supine or sideways position for at least one second (i.e., no translational motion). Lindquist, A. W.; Jones, H. A.; Madden, A. H. DDT Residual-type sprays as affected by light. J. Econ. Entomol. 1946, 39, 55-59. Paralyzed flies never recover.
FIGS. 5A and 5B depict the graphs of the lethality comparison of the two forms of deltamethrin, in terms of fly velocities and knockdown times. The corresponding average knockdown times and median knockdown times (KT50) are denoted. The median knockdown time (KT50) for each polymorph was determined from multiple trials using twenty female flies each. KT50 is defined as the time required to render 50 percent of the insects motionless. Kawada, H.; Dida, G. O.; Ohashi, K.; Komagata, O.; Kasai, S.; Tomita, T.; Sonye, G.; Maekawa, Y.; Mwatele, C.; Njenga, S. M.; Mwandawiro, C; Minakawa, N.; Takagi, M. Multimodal pyrethroid resistance in malaria vectors, Anopheles gambiae s.s., Anopheles arabiensis, and Anopheles funestus s.s. in Western Kenya. PLoS One 2011, 6, No. e22574; Limoee, M.; Ladonni, H.; Enayati, A. A.; Vatandoost, H.; Aboulhasani, M. Detection of pyrethroid resistance and cross resistance to DDT in seven field-collected strains of the German cockroach, Blattella germanica (L.) (Dictyoptera: Blattellidae). J Biol. Sci. 2006, 6, 382-387. The average knockdown times for 2 mg deltamethrin dusts with Form I and Form II were 123 minutes and 21 minutes, respectively. The KT50 values were 113 minutes and 20 minutes, respectively (FIG. 5B).

[2] = test system: yellow fever mosquitos (Aedes aegypti); assay: Polymorph lethality, dust, residual exposure method, Aedes mosquitoes; assay type: in vivo; conditions: for average knockdown time / median knockdown time (KT50): 2 mg deltamethrin dust
Protocol: as §1, with “on yellow fever mosquitos (Aedes aegypti)” for “on fruit flies”, “each dust” for “each powder”, “Female Aedes mosquitoes” for “Female fruit flies (Drosophila melanogaster)”, “the 90” for “the 35”, “the mosquitoes” for “the fruit flies”
The lethalities of the two crystalline forms of deltamethrin were compared by exposing yellow fever mosquitos (Aedes aegypti) to 2 mg of the respective dusts (containing […] deltamethrin Form I or Form II) dispersed evenly in 90 mm-diameter plastic Petri dishes. Each trial was performed in duplicate for each crystalline form, as well as a control.
The motions of mosquitoes were monitored by a video camera. A custom designed video process programmer was used to record the onset of hyperactivity and to track the time required for the expiration of the mosquitoes, as measured by knockdown. No Form I-exposed fly survived more than 300 minutes. […] (FIG. 6A). The death occurred much later for deltamethrin Form I-exposed mosquitoes.
as §2, with “mosquito” for “fly”
FIGS. 6A and 6B depict the graphs of the lethality comparison of the two forms of deltamethrin, in terms of mosquito velocities and knockdown times. The corresponding average knockdown times and median knockdown times (KT50) are denoted. The median knockdown time (KT50) for each polymorph was determined from multiple trials using twenty female mosquitoes each. KT50 is defined as the time required to render 50 percent of the insects motionless. Kawada, H.; Dida, G. O.; Ohashi, K.; Komagata, O.; Kasai, S.; Tomita, T.; Sonye, G.; Maekawa, Y.; Mwatele, C.; Njenga, S. M.; Mwandawiro, C; Minakawa, N.; Takagi, M. Multimodal pyrethroid resistance in malaria vectors, Anopheles gambiae s.s., Anopheles arabiensis, and Anopheles funestus s.s. in Western Kenya. PLoS One 2011, 6, No. e22574; Limoee, M.; Ladonni, H.; Enayati, A. A.; Vatandoost, H.; Aboulhasani, M. Detection of pyrethroid resistance and cross resistance to DDT in seven field-collected strains of the German cockroach, Blattella germanica (L.) (Dictyoptera: Blattellidae). J. Biol. Sci. 2006, 6, 382-387. The average knockdown times for 2 mg deltamethrin Form I and Form II dust were 202 minutes and 22 minutes, respectively. The KT50 values were 192 minutes and 21 minutes, respectively (FIG. 6B).

[3] = test system: Drosophila melanogaster; assay: Polymorph lethality, polyethylene glycol coated crystalline thin film; assay type: in vivo; conditions: for average knockdown time / median knockdown time (KT50): polyethylene glycol coated crystalline film (2.2*2.2 cm^2)
Text: FIGS. 7A-7B are a lethality comparison of the two forms of deltamethrin. FIG. 7A is a graph depicting the velocities of fruit flies exposed to crystalline films (2.2*2.2 cm^2) of deltamethrin Form I and II; FIG. 7B is a comparison of Drosophila melanogaster knockdown times on crystalline films (2.2*2.2 cm^2) of deltamethrin Form I and Form II.
The knockdown times for neat thin films are too short to allow a valid comparison of their lethality. Therefore, thin films of deltamethrin Form I and Form II were prepared and partially coated by nebulized polyethylene glycol, producing islands of inert material with a small fraction of the deltamethrin film exposed (FIG. 7B). […] The corresponding average knockdown times and median knockdown times (KT50) are denoted. The average knockdown times for polyethylene glycol coated deltamethrin Form I and Form II crystalline film were 385 minutes and 70 minutes, respectively. The KT50 values were 400 minutes and 61 minutes, respectively (FIG. 7B).
This confirms that Form I dust is transformed to Form II dust by the microwave heating treatment.

[4] = Phase behavior / thermodynamic stability of deltamethrin polymorphs; assay type: physicochemical
Protocol: Thermodynamic stability of deltamethrin polymorphs was evaluated by the phase transformation behaviors and respective melting points. […] Rarely, transformation from Form II to Form I can be observed between crossed polarizers when spherulites of Form II are in contact with concomitant polycrystalline Form I (FIG. 4A, 4B). Form II fibers grow radially along their <010> direction. […] Upon phase transformation to Form I, the orientation of new grains become misaligned, resulting in a loss of observable birefringence. At room temperature the transformation can be observed by a moving growth front, which advances at a velocity of 0.3 μm/min.

[5] = female Aedes aegypti, 2 mg dust in 90 mm Petri dish

Row | SMILES | average knockdown time [1] [min] | median knockdown time (KT50) [1] [min] | longest survival (no individual survived more than) [1] [min] | onset of hyperactivity [1] | average knockdown time ([2]; female Aedes aegypti) [min] | median knockdown time (KT50) ([2]; female Aedes aegypti) [min] | longest survival (no individual survived more than) [2, 5] [min] | average knockdown time [3] [min] | median knockdown time (KT50) [3] [min] | transformation of Form II to Form I on storage ([4]; crystalline film confined between glass slides, 6 months at room temperature) | room temperature stability ranking ([4]; room temperature) | velocity of the growth front of the Form II to Form I transformation ([4]; room temperature, Form II spherulites in contact with polycrystalline Form I) [μm/min] | lethality ranking ([1]; dust, fruit flies) | lethality ranking ([2]; dust, Aedes aegypti) | onset of hyperactivity [2, 5] | knockdown times, comparison of the forms ([3]; thin films)
1 | CC1(C)[C@H](C(=O)O[C@H](C#N)c2cccc(Oc3ccccc3)c2)[C@@H]1C=C(Br)Br [Form I, (S)-cyano(3-phenoxyphenyl) methyl (1R,3R)-3-(2,2-dibromovinyl)-2,2-dimethylcyclopropane-1-carboxylate, reference compound] | 123 | 113 | ≤ 210 | 40 min | 202 | 192 | ≤ 300 | 385 | 400 |  |  |  |  |  |  | 
2 | CC1(C)[C@H](C(=O)O[C@H](C#N)c2cccc(Oc3ccccc3)c2)[C@@H]1C=C(Br)Br [Form II, (S)-cyano(3-phenoxyphenyl) methyl (1R,3R)-3-(2,2-dibromovinyl)-2,2-dimethylcyclopropane-1-carboxylate] | 21 | 20 | ≤ 40 | as soon as they were exposed | 22 | 21 | ≤ 30 | 70 | 61 | did not transform to Form I | Form I> Form II | 0.3 | more lethal than Form I | more lethal than Form I | as soon as they were exposed | shorter for Form II than for Form I
